Results as given in PubChem BioAssay AID280 (DTP/NCI, 2004).
“And” between values parts separate entries of the source, which are not always exact repeats. Identical values can stand only once. Toxic doses and inconclusive results are not listed.

System: nude mice, LOX melanoma ip, survival T/C
Assay: NCI In Vivo Anticancer Drug Screen. Data for tumor model Human Amelanotic Melanoma (LOX) (intraperitoneal) in NU/NU BALB/C (nude) mice
Conditions: endpoint: median survival time, higher = longer survival
Method: The antitumor activity of compounds was measured in mice bearing transplantable tumors. Survival or tumor size were measured and the results are expressed as the measurement made in the treated group (T) divided by the measurement made in the vehicle treated control group (C). The tumor model used in this assay is Human Amelanotic Melanoma (LOX) (intraperitoneal) in NU/NU BALB/C (nude) mice

[1] = dose: 25.0 mg/kg/injection, schedule: Q04DX003 (ip), vehicle: other
[2] = dose: 75.0 mg/kg/injection, schedule: Q04DX003 (ip), vehicle: saline with Tween-80
[3] = dose: 300.0 mg/kg/injection, schedule: Q04DX003 (ip), vehicle: saline with Tween-80
[4] = dose: 50.0 mg/kg/injection, schedule: Q04DX003 (ip), vehicle: saline with Tween-80
[5] = dose: 100.0 mg/kg/injection, schedule: Q04DX003 (ip), vehicle: saline with Tween-80
[6] = dose: 400.0 mg/kg/injection, schedule: Q04DX003 (ip), vehicle: saline with Tween-80
[7] = dose: 800.0 mg/kg/injection, schedule: Q04DX003 (ip), vehicle: saline with Tween-80
[8] = dose: 37.5 mg/kg/injection, schedule: Q04DX003 (ip), vehicle: Klucel (hydroxypropylcellulose) (HPC)
[9] = dose: 75.0 mg/kg/injection, schedule: Q04DX003 (ip), vehicle: Klucel (hydroxypropylcellulose) (HPC)

For `[Cl][Pt][Cl].[NH-]C(CO)C(=O)O` (stereo not given), the T/C (dose: 9.38 mg/kg/injection, schedule: Q04DX003 (ip), vehicle: water) was 119 % of control, the T/C (dose: 18.75 mg/kg/injection, schedule: Q04DX003 (ip), vehicle: water) was 114 % of control and the T/C (dose: 37.5 mg/kg/injection, schedule: Q04DX003 (ip), vehicle: water) was 123 % of control.

`Cc1noc2nc(-c3ccccc3)cc(N3CCN(C)CC3)c12` was tested, and the T/C [1] was 97 % of control, the T/C (dose: 54.0 mg/kg/injection, schedule: Q04DX003 (ip), vehicle: other) was 97 % of control and the T/C (dose: 100.0 mg/kg/injection, schedule: Q04DX003 (ip), vehicle: other) was 97 % of control. For the same compound, the T/C (dose: 200.0 mg/kg/injection, schedule: Q04DX003 (ip), vehicle: other) was 93 % of control and the T/C (dose: 400.0 mg/kg/injection, schedule: Q04DX003 (ip), vehicle: other) was 98 % of control.

For `S=c1sc2ccccc2n1CN1CCOCC1`, the T/C [2] was 102 % of control and the T/C [3] was 90 % of control.

With `Nc1ncc(C2OC(CO)C(O)C2O)c(=O)[nH]1` (stereo not given) the T/C (dose: 62.5 mg/kg/injection, schedule: Q04DX003 (ip), vehicle: saline) was 112 % of control, the T/C (dose: 125.0 mg/kg/injection, schedule: Q04DX003 (ip), vehicle: saline) was 109 % of control and the T/C (dose: 250.0 mg/kg/injection, schedule: Q04DX003 (ip), vehicle: saline) was 100 % of control.

In the case of `CC(=O)/C(=C\c1ccc(Cl)c(Cl)c1)C(=O)CCN(C)C`, the T/C (dose: 6.25 mg/kg/injection, schedule: Q04DX003 (ip), vehicle: suspension in saline) is reported as 96 % of control, the T/C (dose: 12.5 mg/kg/injection, schedule: Q04DX003 (ip), vehicle: suspension in saline) is reported as 102 % of control and the T/C (dose: 25.0 mg/kg/injection, schedule: Q04DX003 (ip), vehicle: suspension in saline) is reported as 96 % of control. For the same compound, the T/C (dose: 50.0 mg/kg/injection, schedule: Q04DX003 (ip), vehicle: suspension in saline) was 86 % of control and the T/C (dose: 100.0 mg/kg/injection, schedule: Q04DX003 (ip), vehicle: suspension in saline) was 122 % of control.

`Cc1ccc2c(c1)n([O-])c1cc(Cl)ccc1[n+]2=O` was tested, and the T/C [4] was 111 % of control, the T/C [5] was 123 % of control and the T/C (dose: 172.0 mg/kg/injection, schedule: Q04DX003 (ip), vehicle: saline with Tween-80) was 116 % of control. The T/C (dose: 288.0 mg/kg/injection, schedule: Q04DX003 (ip), vehicle: saline with Tween-80) was 108 % of control, the T/C [6] was 111 % of control and the T/C (dose: 480.0 mg/kg/injection, schedule: Q04DX003 (ip), vehicle: saline with Tween-80) was 113 % of control. The T/C [7] was 107 % of control and the T/C (dose: 1333.0 mg/kg/injection, schedule: Q04DX003 (ip), vehicle: saline with Tween-80) was 110 % of control.

In the case of `[Na+]`, the T/C (dose: 75.0 mg/kg/injection, schedule: Q04DX003 (ip), vehicle: water) is reported as 104 % of control, the T/C (dose: 150.0 mg/kg/injection, schedule: Q04DX003 (ip), vehicle: water) is reported as 95 % of control and the T/C (dose: 300.0 mg/kg/injection, schedule: Q04DX003 (ip), vehicle: water) is reported as 108 % of control. The T/C (dose: 1200.0 mg/kg/injection, schedule: Q04DX003 (ip), vehicle: water) was 99 % of control.

For `CCOC(=O)C1=C(C)O/C(=C/c2cccc(Cl)c2)C1=O`, the T/C (dose: 37.5 mg/kg/injection, schedule: Q04DX003 (ip), vehicle: saline with Tween-80) was 200 % of control, the T/C [2] was 194 % of control and the T/C (dose: 150.0 mg/kg/injection, schedule: Q04DX003 (ip), vehicle: saline with Tween-80) was 152 % of control. For the same compound, the T/C [3] was 184 % of control.

In the case of `C/C(=N\NC(=S)N1CCC1)c1ccccn1`, the T/C (dose: 3.13 mg/kg/injection, schedule: Q04DX003 (ip), vehicle: other) is reported as 99 % of control, the T/C (dose: 6.25 mg/kg/injection, schedule: Q04DX003 (ip), vehicle: other) is reported as 96 % of control and the T/C (dose: 12.5 mg/kg/injection, schedule: Q04DX003 (ip), vehicle: other) is reported as 95 % of control. For the same compound, the T/C [1] was 100 % of control.

`COc1ccc(/C=C\c2cc(OC)c(OC)c(OC)c2)c(O)c1O` was tested, and the T/C (dose: 6.25 mg/kg/injection, schedule: Q04DX003 (ip), vehicle: saline + Tween-80 + alcohol) was 97 % of control, the T/C (dose: 12.5 mg/kg/injection, schedule: Q04DX003 (ip), vehicle: saline + Tween-80 + alcohol) was 110 % of control and the T/C (dose: 25.0 mg/kg/injection, schedule: Q04DX003 (ip), vehicle: saline + Tween-80 + alcohol) was 124 % of control.

`C/C(=N\NC(=O)c1ccccc1O)c1cccc(/C(C)=N/NC(=O)c2ccccc2O)n1` was tested, and the T/C (dose: 50.0 mg/kg/injection, schedule: Q04DX003 (ip), vehicle: saline) was 116 % of control and the T/C (dose: 100.0 mg/kg/injection, schedule: Q04DX003 (ip), vehicle: saline) was 154 % of control.

`O=C(O)C1CC(O)CN1` (stereo not given) was tested, and the T/C (dose: 75.0 mg/kg/injection, schedule: Q04DX003 (ip), vehicle: saline) was 108 % of control, the T/C (dose: 300.0 mg/kg/injection, schedule: Q04DX003 (ip), vehicle: saline) was 112 % of control and the T/C (dose: 600.0 mg/kg/injection, schedule: Q04DX003 (ip), vehicle: saline) was 107 % of control. The T/C (dose: 1200.0 mg/kg/injection, schedule: Q04DX003 (ip), vehicle: saline) was 114 % of control.

`BrC[P+](CBr)(CBr)CBr` was tested, and the T/C [4] was 113 % of control, the T/C [5] was 121 % of control and the T/C (dose: 200.0 mg/kg/injection, schedule: Q04DX003 (ip), vehicle: saline with Tween-80) was 105 % of control. For the same compound, the T/C [6] was 103 % of control and the T/C [7] was 119 % of control.

In the case of `CC[C@]1(O)C[C@H]2CN(CCc3c([nH]c4ccccc34)[C@@](C(=O)OC)(c3cc4c(cc3OC)N(C)[C@H]3[C@@](O)(C(=O)OC)[C@H](OC(C)=O)[C@]5(CC)C=CCN6CC[C@]43[C@@H]65)C2)C1`, the T/C (dose: 0.44 mg/kg/injection, schedule: Q04DX003 (iv), vehicle: saline) is reported as 107 % of control, the T/C (dose: 0.67 mg/kg/injection, schedule: Q04DX003 (ip), vehicle: saline) is reported as 110 % of control and 203 % of control and the T/C (dose: 0.67 mg/kg/injection, schedule: Q04DX003 (iv), vehicle: saline) is reported as 112 % of control. The T/C (dose: 1.7 mg/kg/injection, schedule: Q04DX003 (ip), vehicle: saline) was 123 % of control and 203 % of control and the T/C (dose: 1.7 mg/kg/injection, schedule: Q04DX003 (iv), vehicle: saline) was 188 % of control.

`O=[N+]([O-])c1ccc([I+]c2ccccc2)cc1` was tested, and the T/C (dose: 9.38 mg/kg/injection, schedule: Q04DX003 (ip), vehicle: Klucel (hydroxypropylcellulose) (HPC)) was 121 % of control, the T/C (dose: 16.2 mg/kg/injection, schedule: Q04DX003 (ip), vehicle: Klucel (hydroxypropylcellulose) (HPC)) was 115 % of control and the T/C (dose: 27.0 mg/kg/injection, schedule: Q04DX003 (ip), vehicle: Klucel (hydroxypropylcellulose) (HPC)) was 114 % of control and 101 % of control. For the same compound, the T/C [8] was 108 % of control, the T/C (dose: 45.0 mg/kg/injection, schedule: Q04DX003 (ip), vehicle: Klucel (hydroxypropylcellulose) (HPC)) was 105 % of control and 120 % of control and the T/C [9] was 93 % of control.

For `CC(C)N1C(=O)N(Cl)C2C1N(Cl)C(=O)N2Cl` (stereo not given), the T/C (dose: 6.25 mg/kg/injection, schedule: Q04DX003 (ip), vehicle: saline with Tween-80) was 103 % of control and 88 % of control, the T/C (dose: 12.5 mg/kg/injection, schedule: Q04DX003 (ip), vehicle: saline with Tween-80) was 102 % of control and 88 % of control and the T/C (dose: 25.0 mg/kg/injection, schedule: Q04DX003 (ip), vehicle: saline with Tween-80) was 109 % of control and 98 % of control. The T/C [4] was 107 % of control and 121 % of control and the T/C [5] was 102 % of control and 120 % of control.

`CC[C@@]1(O)C[C@H](OC2CC(N(C)C)C(OC3CC4OC5CC(=O)C(C)OC5OC4C(C)O3)C(C)O2)c2c(O)c3c(c(O)c2[C@H]1OC1CC(N(C)C)C(O)C(C)O1)C(=O)c1cccc(O)c1C3=O` (stereo not given in full) was tested, and the T/C (dose: 63.0 micrograms/kg/injection, schedule: Q04DX003 (ip), vehicle: saline) was 115 % of control, the T/C (dose: 125.0 micrograms/kg/injection, schedule: Q04DX003 (ip), vehicle: saline) was 111 % of control and the T/C (dose: 250.0 micrograms/kg/injection, schedule: Q04DX003 (ip), vehicle: saline) was 108 % of control and 94 % of control.

For `CCCCCC[Se][Se]CCCCCC`, the T/C [8] was 98 % of control, the T/C [9] was 96 % of control and the T/C (dose: 150.0 mg/kg/injection, schedule: Q04DX003 (ip), vehicle: Klucel (hydroxypropylcellulose) (HPC)) was 93 % of control. For the same compound, the T/C (dose: 300.0 mg/kg/injection, schedule: Q04DX003 (ip), vehicle: Klucel (hydroxypropylcellulose) (HPC)) was 105 % of control.
